The results in this text go back to patent publication US20250161299A1, “ORAL PCLX-001 IN THE TREATMENT OF HUMAN CANCER” (PACYLEX PHARMACEUTICALS INC., priority 2022, published 2025).

The series is described as follows: PK and maximally tolerated dose, daily oral administration, mouse. The class given is in vivo. The procedure: The allometric scaling is based on toxicity, and the toxicity is that which establishes the Maximally Tolerated Dose (MTD) in animal studies. In mice, one toxicity study established the MTD to be 35 mg/kg. […] It was not expected that, as shown herein, doses markedly lower than 180 mg daily in humans would have anticancer effects.
[…]. Possible explanations for this finding include hysteresis loops (7), and flip-flop pharmacokinetics (7).
Allometric scaling is a means by which PK results from animal studies can be used to predict human drug exposure for a range of drug doses. In this case, allometric scaling was performed using representative values from the PK studies with daily oral PCLX-001 administration for 14 or 28 days in non-human species. These inputs were analyzed with www.truedose.app to predict the Maximally Tolerated Dose we would see in this phase one clinical trial (FIG. 2). […]

SMILES strings stand for the structures.

Broadly, the Cmax is the peak of the concentration-time curve. As usually defined, the half-life is the time needed for the level to fall by half in the phase considered. Low readings indicate fast loss, high ones slow loss. On to `Cc1c(NS(=O)(=O)c2c(Cl)cc(-c3ccnc(N4CCNCC4)c3)cc2Cl)c(CC(C)C)nn1C` [PCLX-001, 2,6-dichloro-N-(3-isobutyl-1,5-dimethyl-1H-pyrazol-4-yl)-4-(2-(piperazin-1-yl)pyridin-4-yl)benzene sulfonamide], for which the “Maximally Tolerated Dose daily oral administration” value stood at 35 mg/kg. Moreover, where the note is “in vivo, po”, the Cmax worked out at 46000 ng/mL and the half-life is 1.6 h.
